Patent US11691981B2, “Heterocyclic compounds, preparation methods therefor, and methods of uses thereof” (INVENTISBIO CO., LTD., priority 2019, dated 2023)

Columns and labels:
TGFβR1 = TGFβR1 (Homo sapiens (Human), UniProt P36897); assay: TGFβR1 kinase inhibition assay (ADP-Glo Kinase Assay); type: biochemical; details: 40 nM TGFβR1 in 2x enzyme mix, 5.4 μM ATP in 2x substrate mix, 120 min RT
Protocol: TGFβR1 kinase assay was performed according to the instruction manual of the ADP-Glo™ Kinase Assay kit provided by Promega. Prepare 1× Kinase buffer (50 mM Tris pH7.5, 0.1% BSA, 10 mM MgCl2, 1 mM DTT). Before activation reaction was started, Compounds were dissolved in DMSO and make 100× solution with 3-fold serial dilution for a total of 10 concentrations. Transfer 50 nL compounds to 384-well plate according to plate map using the automated liquid handler. […] Add 5 μL ADP-Glo Reagent to terminate the kinase reaction and deplete the remaining ATP, incubate at RT for 60 minutes. Add 10 μL Kinase Detection Reagent to convert ADP to ATP and allow the newly synthesized ATP to be measured using a luciferin reaction, incubate at RT for 30 minutes. Collect luminescence data with Envision.

MDCK-MDR1 cells = assay: P-glycoprotein substrate potential / permeability in MDR1-transfected MDCK cells; type: in vitro ADME
Protocol: (§1) MDCK-MDR1 cells were seeded into 96-well HTS Transwell plate at the density of 5.45×10^5/cm^2. Cells were cultivated for 4-7 days before the transport assay. Transepithelial electrical resistance (TEER) of MDCK-MDR1 monolayer was measured before the experiment with the Millicell Epithelial Volt-Ohm measuring system.
(§2) Transport assay: Cell monolayers were pre-incubated in transport medium (TM, HBSS with 25 mM HEPES, pH 7.4) for 30 min at 37° C. After preincubation, the study was initiated by adding the test compound to the donor side and TM to the receiver side. Compound transport was assessed at 1 μM in two directions (apical, AP to basolateral, BL and BL to AP) and the study was carried out in the presence and absence of P-gp inhibitor verapamil in both AP and BL compartments. After two hours incubation, aliquots of 50 μL from donor or receiver side were removed and mixed with 4 volumes of acetonitrile containing internal standards (200 nM alprazolam, 200 nM labetalol, 2 μM ketoprofen). Samples were analyzed by UPLC-MS/MS. All incubations were performed in duplicate. After the transport experiment, Lucifer Yellow leakage was measured in a fluorescence plate reader at 485 nm excitation and 530 nm emission.
(§3) Data Analysis: All calculations were carried out using Microsoft Excel. Peak areas are determined from extracted ion chromatograms.
(§4) The apparent permeability coefficient (Papp), in units of centimeter per second, was calculated for MDCK-MDR1 drug transport assays using the following equation: […]
(§5) Where VA is the volume (in mL) in the acceptor well, Area is the surface area of the membrane (0.143 cm2 for Transwell-96 Well Permeable Supports), and time is the total transport time in seconds.
(§6) The efflux ratio was determined using the following equation: […]
(§7) Where Papp (B-A) indicates the apparent permeability coefficient in basolateral to apical direction, and Papp (A-B) indicates the apparent permeability coefficient in apical to basolateral direction.

pooled human hepatocytes = assay: Human hepatocyte clearance study; type: in vitro ADME; details: human hepatocytes; for Human Hepatocyte Remaining Percentage @ 120 min: 0.5×10^6 viable cells/mL
Protocol: (§8) The in vitro human hepatocyte clearance of compounds described here was studied using pooled human hepatocytes purchased from BioreclamationIVT (Westbury, N.Y., Cat #X008001, Lot #TQJ). The assay was conducted according to manufacturer's instruction. Briefly, 10 mM stock solutions of test compounds and positive control (Verapamil) were prepared in 100% DMSO. Thawing media (50 mL) used in the study consists of: 31 mL Williams E medium (GIBCO Cat #12551-032); 15 mL isotonic percoll (GE Healthcare Cat #17-0891-09); 500 uL 100× GlutaMax (GIBCO Cat #35050); 750 uL HEPES (GIBCO Cat #15630-080); 2.5 mL FBS (Corning Cat #35-076-CVR); 50 uL human insulin (GIBCO Cat #12585-014) and 5 uL dexamethasone (NICPBP). Incubation media is made of Williams E medium supplemented with 1× GlutaMax. Both thawing medium and incubation medium (serum-free) were placed in a 37° C. water bath for at least 15 minutes prior to use. Compound stock solutions were diluted to 100 μM by combining 198 μL of 50% acetonitrle/50% water and 2 μL of 10 mM stock solution. Verapamil was use as positive control in the assay. Vials of cryopreserved hepatocytes were removed from storage and thawed in a 37° C. water bath with gentle shaking. Contents of the vial were poured into the 50 mL thawing medium conical tube. Vials were centrifuged at 100 g for 10 minutes at room temperature. Thawing medium was aspirated and hepatocytes were re-suspended with serum-free incubation medium to yield ˜1.5×10^6 cells/mL. Hepatocyte viability and density were counted using a Trypan Blue exclusion, and then cells were diluted with serum-free incubation medium to a working cell density of 0.5×10^6 viable cells/mL. Then, a portion of the hepatocytes at 0.5×10^6 viable cells/mL was boiled for 5 minutes prior to adding to the plate as negative control to eliminate the enzymatic activity so that little or no substrate turnover should be observed. The boiled hepatocytes were used to prepare negative samples. Aliquots of 198 μL hepatocytes were dispensed into each well of a 96-well non-coated plate. The plate was placed in the incubator on an orbital shaker at 500 rpm for approximately 10 minutes. Aliquots of 2 μL of the 100 μM test compound or positive control were added into respective wells of the non-coated 96-well plate to start the reaction. This assay was performed in duplicate. The plate was incubated in the incubator on an orbital shaker at 500 rpm for the designated time points. Twenty-five microliter of contents were transferred and mixed with 6 volumes (150 μL) of cold acetonitrile with IS (200 nM imipramine, 200 nM labetalol and 200 nM diclofenac) to terminate the reaction at time points of 0, 15, 30, 60, 90 and 120 minutes. Samples were centrifuged at 3,220 g for 25 minutes and aliquots of 150 μL of the supernatants were used for LC-MS/MS analysis. For data analysis, all calculations were carried out using Microsoft Excel. Peak areas were determined from extracted ion chromatograms. The in vitro half-life (t1/2) of parent compound was determined by regression analysis of the percent parent disappearance vs. time curve. The in vitro half-life (in vitro ti) was determined from the slope value: in vitro t1/2=0.693/k. […] Scaling factors for in vivo intrinsic clearance prediction using human hepatocytes are listed as: liver weight (g liver/kg body weight): 25.7; hepatocyte concentration (10^6 cells/g liver): 99; scaling factor: 2544.3.

TGFβR2 = TGFβR2 (Homo sapiens (Human), UniProt P37173); assay: TGFβR2 kinase inhibition assay (ADP-Glo); type: biochemical; details: 10 uM ATP, 120 min room temperature
Sequence of TGFβR2 (P37173 23-567): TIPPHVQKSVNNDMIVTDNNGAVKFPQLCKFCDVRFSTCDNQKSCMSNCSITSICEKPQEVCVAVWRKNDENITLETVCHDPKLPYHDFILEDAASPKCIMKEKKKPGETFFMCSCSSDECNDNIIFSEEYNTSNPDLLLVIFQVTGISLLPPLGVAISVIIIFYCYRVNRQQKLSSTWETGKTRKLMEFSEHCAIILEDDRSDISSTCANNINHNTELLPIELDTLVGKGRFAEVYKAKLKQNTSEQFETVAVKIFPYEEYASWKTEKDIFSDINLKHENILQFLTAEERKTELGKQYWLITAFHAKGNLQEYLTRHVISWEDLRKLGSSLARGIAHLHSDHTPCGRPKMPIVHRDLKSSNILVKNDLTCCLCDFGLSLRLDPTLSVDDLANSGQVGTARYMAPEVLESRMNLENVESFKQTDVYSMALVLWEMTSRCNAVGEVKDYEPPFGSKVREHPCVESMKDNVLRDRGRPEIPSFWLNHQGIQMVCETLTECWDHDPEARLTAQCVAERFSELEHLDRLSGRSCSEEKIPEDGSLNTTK
Protocol: The TGFβR2 enzyme reaction was carried out as follows: 50 nL of compound in DMSO (or DMSO controls) were stamped into 384 white, low-volume plates. 2.5 μL of 2× enzyme solution (final enzyme concentration was 3 ng/uL in 40 mMTris, 7.5; 20 mM MgCl2; 0.1 mg/mL BSA; 1 mM DTT) was dispensed into assay plate. The plate was then sealed and spun at 1000 rpm for 30 s and incubated at room temperature for 10 min. Followed by addition of 2.5 μL of 2× substrate solution that contains both ATP (to make a final concentration of 10 uM) and TGFβR2 substrate (final concentration of 0.2 ug/uL). The plate was then sealed and spun at 1000 rpm for 30 s and the reaction was then incubated at room temperature for 120 min. After that 5 μL ADP-Glo™ Reagent was added into the assay wells to stop the reaction and deplete unconsumed ATP for 40 min at room temperature; then, 10 μL of Detection Reagent was added into the assay wells, followed by 40 min incubation to develop luminescence. The luminescence signal was then collected on Envision 2104 plate reader.

P-glycoprotein (MDR1) = assay: P-glycoprotein substrate potential / permeability in MDR1-transfected MDCK cells; type: in vitro ADME; details: dog, pH 7.4; for Papp A→B at 2 h, 1 µM / Papp B→A at 2 h, 1 µM: MDCK-MDR1, 1 μM, two hours; for Papp A→B at 2 h, 1 µM: apical to basolateral; for Papp B→A at 2 h, 1 µM: basolateral to apical; for efflux ratio at 2 h, 1 µM: MDCK-MDR1, Papp (B-A)/Papp (A-B)
Protocol: as §1, §2, §3, §4, §5, §6, §7

[1] = Human hepatocyte clearance study; type: in vitro ADME; details: pooled cryopreserved human hepatocytes (suspension); for hepatocyte CLint at 1 µM / half-life at 1 µM: human; for hepatocyte CLint at 1 µM: read-out: Human In vitro Clint; for half-life at 1 µM: read-out: Human In vitro T1/2; for CLint scaled at 1 µM: human hepatocytes, scaling factor 2544.3, read-out: Human Scale-up Clint
Protocol: as §8

Sequence of TGFβR1 (P36897 34-503): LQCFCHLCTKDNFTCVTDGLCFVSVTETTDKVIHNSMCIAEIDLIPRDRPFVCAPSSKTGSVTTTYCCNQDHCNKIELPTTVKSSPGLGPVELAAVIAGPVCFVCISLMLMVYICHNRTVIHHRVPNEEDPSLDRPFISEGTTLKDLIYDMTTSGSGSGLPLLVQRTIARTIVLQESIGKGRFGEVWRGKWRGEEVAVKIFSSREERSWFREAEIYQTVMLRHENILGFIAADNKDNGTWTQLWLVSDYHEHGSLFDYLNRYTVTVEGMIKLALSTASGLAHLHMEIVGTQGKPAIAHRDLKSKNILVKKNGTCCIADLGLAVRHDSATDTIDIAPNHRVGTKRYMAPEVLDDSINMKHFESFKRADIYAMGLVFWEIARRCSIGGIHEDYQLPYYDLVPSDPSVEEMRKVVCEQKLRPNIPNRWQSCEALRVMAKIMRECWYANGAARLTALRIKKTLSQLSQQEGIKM

SMILES: CC(C)(O)c1cc(Nc2cc(Oc3cc(C(F)(F)F)nn3C3CCOCC3)ccn2)ccn1 [Compound 2]
- IC50 (TGFβR1): 53 nM
- Papp (A-B) (MDCK-MDR1 cells; MDCK-MDR1, 1 μM, apical to basolateral, two hours): 4.95 10^−6, cm/s
- Papp (B-A) (MDCK-MDR1 cells; MDCK-MDR1, 1 μM, basolateral to apical, two hours): 14.87 10^−6, cm/s
- Efflux Ratio (MDCK-MDR1 cells; MDCK-MDR1, Papp (B-A)/Papp (A-B)): 3.00
- Human In vitro Clint (pooled human hepatocytes): 5.6 μL/min/10^6 cells
- Human In vitro T1/2 (pooled human hepatocytes): 4.1 h
- Human Hepatocyte Remaining Percentage @ 120 min (pooled human hepatocytes): 72%
- Human Scale-up Clint (pooled human hepatocytes; scaling factor 2544.3): 14.3 mL/min/kg

SMILES: CC(C)(O)c1ccc(Nc2cc(Oc3cc(C(F)(F)F)nn3C3CCOCC3)ccn2)cn1 [Compound 11]
- IC50 (TGFβR2): > 100000 nM
- IC50 (TGFβR1): 24 nM
- Papp A→B at 2 h, 1 µM (P-glycoprotein (MDR1)): 7.38 ×10⁻⁶ cm/s
- Papp B→A at 2 h, 1 µM (P-glycoprotein (MDR1)): 6.24 ×10⁻⁶ cm/s
- efflux ratio at 2 h, 1 µM (P-glycoprotein (MDR1)): 0.85
- Human Hepatocyte Remaining Percentage @ 120 min (pooled human hepatocytes): 71%
- hepatocyte CLint at 1 µM [1]: 5.7 µL/min/1e6 cells
- half-life at 1 µM [1]: 4.03 h
- CLint scaled at 1 µM [1]: 14.6 mL/min/kg

SMILES: NS(=O)(=O)c1ccc(Nc2cc(Oc3cc(C(F)(F)F)nn3C3CCOCC3)ccn2)cc1 [Compound 12]
- IC50 (TGFβR2): > 100000 nM
- IC50 (TGFβR1): 28 nM
- Human Hepatocyte Remaining Percentage @ 120 min (pooled human hepatocytes): 64%
- hepatocyte CLint at 1 µM [1]: 7.7 µL/min/1e6 cells
- half-life at 1 µM [1]: 3 h
- CLint scaled at 1 µM [1]: 19.6 mL/min/kg

SMILES: NS(=O)(=O)c1ccc(Nc2cc(Oc3cc(C4CC4)nn3C3CC3)ccn2)cc1 [Compound 13]
- IC50 (TGFβR2): > 100000 nM
- IC50 (TGFβR1): 44 nM
- Human Hepatocyte Remaining Percentage @ 120 min (pooled human hepatocytes): 65%
- hepatocyte CLint at 1 µM [1]: 7.5 µL/min/1e6 cells
- half-life at 1 µM [1]: 3.08 h
- CLint scaled at 1 µM [1]: 19 mL/min/kg

SMILES: Cn1nc(C(F)(F)F)cc1Oc1ccnc(Nc2ccnc(C(C)(C)O)c2)c1 [Compound 23]
- IC50 (TGFβR1): 38 nM
- Human Hepatocyte Remaining Percentage @ 120 min (pooled human hepatocytes): 88%
- hepatocyte CLint at 1 µM [1]: 2.2 µL/min/1e6 cells
- half-life at 1 µM [1]: 10.4 h
- CLint scaled at 1 µM [1]: 5.6 mL/min/kg

SMILES: CC(C)(O)c1cc(Nc2cc(Oc3cc(C(F)(F)F)nn3-c3ccccn3)ccn2)ccn1 [Compound 41]
- IC50 (TGFβR2): 15000 nM
- IC50 (TGFβR1): 12 nM
- Papp A→B at 2 h, 1 µM (P-glycoprotein (MDR1)): 3.63 ×10⁻⁶ cm/s
- Papp B→A at 2 h, 1 µM (P-glycoprotein (MDR1)): 4.88 ×10⁻⁶ cm/s
- efflux ratio at 2 h, 1 µM (P-glycoprotein (MDR1)): 1.35

SMILES: CC(C)(O)c1cc(Nc2cc(Oc3cccnc3C3CCOCC3)ccn2)ccn1 [Compound 54]
- IC50 (TGFβR2): > 100000 nM
- IC50 (TGFβR1): 56 nM
- Human Hepatocyte Remaining Percentage @ 120 min (pooled human hepatocytes): 61%
- hepatocyte CLint at 1 µM [1]: 6.8 µL/min/1e6 cells
- half-life at 1 µM [1]: 3.38 h
- CLint scaled at 1 µM [1]: 17.4 mL/min/kg

SMILES: Cc1ccc(Oc2ccnc(Nc3ccnc(C(C)(C)O)c3)c2)c(C2CCOCC2)n1 [Compound 55]
- IC50 (TGFβR2): 15000 nM
- IC50 (TGFβR1): 35 nM
